Test results taken from US7098372B1, “Pharmaceutical compositions and methods of using secreted frizzled related protein” (Wyeth, priority 1999, dated 2006).

B1: SFRP-1/FRP-1/SARP-2: human osteoblast secreted frizzled related protein, SEQ ID NO 2, expressed from transfected cDNA in pcDNA3.1 (protein, listed as Homo sapiens)
chain: MGIGRSEGGRRGAALGVLLALGAALLAVGSASEYDYVSFQSDIGPYQSGRFYTKPPQCVDIPADLRLCHNVGYKKMVLPNLLEHETMAEVKQQASSWVPLLNKNCHAGTQVFLCSLFAPVCLDRPIYPCRWLCEAVRDSCEPVMQFFGFYWPEMLKCDKFPEGDVCIAMTPPNATEASKPQGTTVCPPCDNELKSEAIIEHLCASEFALRMKIKEVKKENGDKKIVPKKKKPLKLGPIKKKDLKKLVLYLKNGADCPCHQLDNLSHHFLIMGRKVKSQYLLTAIHKWDKKNKEFKNFMKKMKNHECPTFQSVFK

Key:
[1] = system: hOB SFRP mRNA; assay: hOB SFRP mRNA levels after treatment with various agents (method not given); assay type: cell-based, human; conditions: various hOB cell lines
[2] = biological target: T1, PTH-1 receptor (Homo sapiens, UniProt Q03431); assay: Intracellular cAMP assay in hOB-01-C1-PS-09 cells; assay type: cell-based; conditions: preincubation at 34° C.
T1 construct: the hOB-01-C1-PS-09 cell line was selected for further characterization based on its high-level of PTH-1 receptor mRNA expression; endogenous in cells; host or cells: hOB-01-C1-PS-09 cells (ATCC PTA-785)
T1 sequence (Q03431 27-593): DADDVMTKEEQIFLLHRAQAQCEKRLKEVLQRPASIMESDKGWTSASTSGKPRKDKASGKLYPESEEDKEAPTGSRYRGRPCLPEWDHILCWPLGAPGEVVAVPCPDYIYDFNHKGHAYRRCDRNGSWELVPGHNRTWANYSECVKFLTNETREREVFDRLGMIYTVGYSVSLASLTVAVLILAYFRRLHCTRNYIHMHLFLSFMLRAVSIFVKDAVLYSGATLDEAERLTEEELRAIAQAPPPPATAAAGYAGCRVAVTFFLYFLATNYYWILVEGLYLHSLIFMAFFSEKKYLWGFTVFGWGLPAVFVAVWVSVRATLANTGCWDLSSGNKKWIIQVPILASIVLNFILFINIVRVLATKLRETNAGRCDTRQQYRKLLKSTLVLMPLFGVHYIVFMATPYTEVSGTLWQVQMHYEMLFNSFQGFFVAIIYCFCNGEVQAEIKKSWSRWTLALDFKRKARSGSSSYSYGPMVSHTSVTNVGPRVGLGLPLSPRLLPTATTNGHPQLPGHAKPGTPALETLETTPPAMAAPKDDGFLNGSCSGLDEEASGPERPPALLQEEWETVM
Method: As mentioned above, the hOB-01-C1-PS-09 cell line was selected for further characterization based on its high-level of PTH-1 receptor mRNA expression. […] Consistent with this enhanced PTH-1 receptor expression, […] increasing concentrations of human PTH 1–34 (hPTH 1–34) for 10 min at 37° C. generates a dose-dependent 5- to 6-fold increase in intracellular cyclic-adenosine monophosphate (cAMP) levels (FIG. 24). […] Thus, both PTH-1 receptor expression and responsiveness are enhanced following inactivation of the tsA-209 T-antigen. One potential utility for this cAMP assay would be the ability to characterize the activities of PTH-analogs or -mimetics in an important target cell under conditions where levels of PTH-1 receptor expression are dramatically altered.

[3] = system: hOB SFRP mRNA; assay: Northern blot analysis of hOB SFRP mRNA expression; assay type: cell-based, human
Description: The hOB SFRP gene fragment was identified using RADE (rapid analysis of differential expression) technology as described by Shiue 1997 Drug Develop. Res. 41: 142–159, the whole of which is incorporated herein. Three hOB cell lines (hOB-03-C5, hOB-03-CE6 and hOB-01-C1), representing three distinct stages of differentiation (proliferative, mature and preosteocytic, respectively) were used to isolate and identify SFRP. The hOB cell lines were established and cultured as previously described (Bodine et al. 1996 J. Bone Miner. Res. 11: 806–819; Bodine et al. 1996 Endocrinology 137: 4592–4604; Bodine et al. 1997 J. Cell. Biochem. 65: 368–387). […] However, in contrast to osteosarcoma cells (Stein and Lian 1993 Endocrine Rev. 14: 424–442), the hOB cell lines were faithful to the proliferation/differentiation relationship at the nonpermissive temperature (>37° C.) when the T-antigen mutant is inactivated. The cell lines were seeded into 150 mm dishes at ˜40,000 cells/cm^2 with growth medium [D-MEM/F-12 containing 10% (v/v) heat-inactivated fetal bovine serum (FBS), 1% (v/v) Penicillin-Streptomycin and 2 mM GlutaMAX-1] and incubated overnight at 34° C. The next day, the medium was removed, the cells were rinsed with phosphate-buffered saline (PBS), 20 ml of serum-free medium was added to the dishes [phenol red-free D-MEM/F-12 (Gibco/BRL) containing 0.25% (w/v) bovine serum albumin (BSA, Pentex crystallized, Bayer), 1% (v/v) Penicillin-Streptomycin, 2 mM GlutaMAX-1, […] ascorbate-2-phosphate (Wako), and 10 nM menadione sodium bisulfite (vitamin K3)], and the dishes were incubated at 39° C. for 24 hr. The next day, the medium was removed and the cells were treated at 39° C. for an additional 24 hr with 20 ml of fresh serum-free medium containing either vehicle (Control), 8 nM human parathyroid hormone 1–34 (PTH), 100 nM prostaglandin E2 (PGE2) or 0.1 nM human transforming growth factor-β1 (TGF-β1). PTH, PGE2 and TGF-β1 are known osteogenic agents (Whitfield and Morley 1995 Trends Pharmaceut. Sci. 16:382–386; Jee and Ma 1997 Bone 21:297–304; Centrella et al. 1994 Endocrine Rev. 15:27–39). After the treatment period, the dishes were rinsed with PBS and total cellular RNA was isolated from the nontreated and treated cells using TRIzol according to the manufacturers instructions (GibcoBRL). RADE was then performed with the isolated RNA samples as above; the regulated gene fragments were identified, cloned and sequenced. These experiments identified a total of 82 differentially expressed genes. A BLAST (basic local alignment search tool) search of the public data bases was performed on the RADE-obtained gene fragments; one of the gene fragments was highly homologous to mouse SFRP-1. This gene fragment was identified during RADE using the following primer pair: 5′-[…]-3′ (HT11A)3′ end (reverse primer) and 5′-[…]-3′ (H-AP1) 5′ end (forward primer), which sequences are SEQ ID NO 11 and SEQ ID NO 12, respectively. The expression and regulation of the gene fragment having homology to mouse cDNA SFRP-1 was confirmed by Northern blot analysis.
In order to confirm the regulation of hOB SFRP gene expression by different osteogenic agents (i.e., the DNA fragment identified in Example 1, above), the hOB cell lines were treated with PTH, PGE2, and TGF-β1; RNA was then isolated for Northern hybridizations. The experiments were performed as follows. The hOB cell lines were seeded into 150 mm dishes and treated as described in Example 1, except that polyA+ RNA was isolated from total cellular RNA using Oligotex mRNA maxi kits as described by the manufacturer (Qiagen). Northern blot analysis was performed using either the excised RADE hOB SFRP gene fragment, the cloned hOB SFRP gene fragment or the cloned full-length hOB SFRP cDNA as a ^32P-labeled probe (as described in Bodine et al. 1996 J. Bone Miner. Res. 11: 806–819, which is incorporated herein). Each of these probes detected a 4.4–4.6 kb message in the hOB cells. […]

[4] = system: Wnt signaling; assay: TCF-luciferase reporter gene assay of Wnt signaling; assay type: cell-based, human; conditions: transfected cDNA, hOB-01-C1-PS-09 or hOB-02-C1-PS-02 cells
Method: SARP-2 or human Frzb-1 expression plasmids downregulates Wnt signaling (when compared to the pcDNA3.1 empty vector control) in the hOB cells as measured by the TCF-luciferase reporter gene assay. This assay is an authentic measurement of Wnt signaling and β-catenin nuclear activity.
In order to determine if the up-regulation of SFRP-1/FRP-1/SARP-2 gene expression results in an antagonism of the Wnt signaling pathway, hOB-03-CE6 cells were treated with PGE2 and the resulting cells probed with β-catenin monoclonal antibody. Overexpression of Wnt proteins in cells up-regulates a signaling protein known as β-catenin (reviewed in Moon et al. 1997 Cell 88: 725–728; Barth et al. 1997 Curr. Opin. Cell Biol. 9: 683–690; and Nusse 1997 Cell 89: 321–323). […] Therefore, hOB-03-CE6 cells were plated and treated with PGE2 as described in Example 1, except that total cellular protein was extracted and a Western blot analysis for β-catenin was performed using a monoclonal antibody to the protein (Transduction Laboratories) as previously described (Bodine et al. 1996 Endocrinology 137: 4592–4604; Melkonyan et al. 1997 Proc. Natl. Acad. Sci. USA 94: 13636–13641). […] Both human and rat SFRP-1/FRP-1/SARP-2, as well as human Frzb-1/FrzB/Fritz, suppressed TCF-luciferase activity in the hOB cells.

[5] = system: hOB-01-C1-PS-09 cells; assay: Cell viability of hOB-01-C1-PS-09 cells stably transfected with hOB SFRP cDNA; assay type: cell-based, human; conditions: stably transfected hOB-01-C1-PS-09 cells
Description: For these experiments, the cells were stably transfected with either an hOB SFRP cDNA (i.e., SFRP-1/FRP-1/SARP-2) mammalian expression plasmid or the empty vector (i.e., pcDNA3.1). The results are presented as the % of the day 0 control cells.
For these experiments, the cells were stably transfected with either an hOB SFRP cDNA (i.e., SFRP-1/FRP-1/SARP-2) mammalian expression plasmid or the empty vector (i.e., pcDNA3.1, which is obtained from Invitrogen of Carlsbad, Calif.). Standard cloning technigues were used (See Ausubel et al. 1997 Short Protocols in M<olecular Biology, 3rd edition, Wiley {New York}). The results are presented as the % of the day 0 control cells.

Row | Molecule | effect on hOB SFRP message expression [1] | increase in cAMP concentrations [2] | regulation of SFRP mRNA ([3]; SaOS-2 human osteosarcoma cells, 24 hr, 37° C.) | suppression of basal hOB SFRP expression ([3]; hOB-01-C1 cells, 8 nM) | TCF-luciferase activity [4] | rate of cell death on overexpression versus empty vector [5]
1 | human parathyroid hormone 1–34 [PTH] | suppresses | does not result in a subsequent increase | not regulated | 35% |  | 
2 | B1 |  |  |  |  | suppressed | accelerates the rate of cell death
